# Data: PubChem BioAssay (NCI)
#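 How tested: cells in 96-well plates exposed to compound for 48 hours at five concentrations. TGI marks complete inhibition of growth.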
# How the values were obtained:
# Assay in all cases: growth of human tumour cells (NCI), 48 h
# [1] = test system: 786-0 renal
# [2] = test system: A498 renal
# [3] = test system: A549 NSCLC
# [4] = test system: ACHN renal
# [5] = test system: BT-549 breast
# [6] = test system: CAKI-1 renal
# [7] = test system: CCRF-CEM leukemia
# [8] = test system: COLO 205 colon
# [9] = test system: DU-145 prostate
# [10] = test system: EKVX NSCLC
# [11] = test system: HCC-2998 colon
# [12] = test system: HCT-116 colon
# [13] = test system: HCT-15 colon
# [14] = test system: HL-60(TB) leukemia
# [15] = test system: HOP-92 NSCLC
# [16] = test system: HS 578T breast
# [17] = test system: HT29 colon
# [18] = test system: IGROV1 ovarian
# [19] = test system: K-562 leukemia
# [20] = test system: KM12 colon
# [21] = test system: M14 melanoma
# [22] = test system: MALME-3M melanoma
# [23] = test system: MCF7 breast
# [24] = test system: MDA-MB-435
# [25] = test system: MDA-N
# [26] = test system: MOLT-4 leukemia
# [27] = test system: NCI-H226 lung
# [28] = test system: NCI-H23 lung
# [29] = test system: NCI-H460 lung
# [30] = test system: NCI-H522 lung
# [31] = test system: NCI/ADR-RES ovarian
# [32] = test system: OVCAR-3 ovarian
# [33] = test system: OVCAR-4 ovarian
# [34] = test system: OVCAR-5 ovarian
# [35] = test system: OVCAR-8 ovarian
# [36] = test system: PC-3 prostate
# [37] = test system: RPMI-8226 leukemia
# [38] = test system: RXF 393 renal
# [39] = test system: SF-268 CNS
# [40] = test system: SF-295 CNS
# [41] = test system: SF-539 CNS
# [42] = test system: SK-MEL-2 melanoma
# [43] = test system: SK-MEL-28 melanoma
# [44] = test system: SK-MEL-5 melanoma
# [45] = test system: SK-OV-3 ovarian
# [46] = test system: SN12C renal
# [47] = test system: SNB-19 CNS
# [48] = test system: SNB-75 CNS
# [49] = test system: SR leukemia
# [50] = test system: SW-620 colon
# [51] = test system: T-47D breast
# [52] = test system: TK-10 renal
# [53] = test system: U251 CNS
# [54] = test system: UACC-257 melanoma
# [55] = test system: UACC-62 melanoma
# [56] = test system: UO-31 renal
# [57] = test system: HOP-62 NSCLC
# [58] = test system: LOX IMVI melanoma
# [59] = test system: MDA-MB-231 breast
smiles,measurement,setting,value
Cc1cc2c(cc1C)C(=O)C1(C2)Cc2cc3c(cc2C1=O)CCC3 (configuration not stated),TGI,[1],> 100 µM
same,TGI,[2],> 100 µM
same,TGI,[3],> 100 µM
same,TGI,[4],> 100 µM
same,TGI,[5],> 100 µM
same,TGI,[6],> 100 µM
same,TGI,[7],> 100 µM
same,TGI,[8],> 100 µM
same,TGI,[9],> 100 µM
same,TGI,[10],> 100 µM
same,TGI,[11],> 100 µM
same,TGI,[12],> 100 µM
same,TGI,[13],> 100 µM
same,TGI,[14],> 100 µM
same,TGI,[15],> 100 µM
same,TGI,[16],> 100 µM
same,TGI,[17],> 100 µM
same,TGI,[18],> 100 µM
same,TGI,[19],> 100 µM
same,TGI,[20],> 100 µM
same,TGI,[21],> 100 µM
same,TGI,[22],> 100 µM
same,TGI,[23],> 100 µM
same,TGI,[24],> 100 µM
same,TGI,[25],> 100 µM
same,TGI,[26],> 100 µM
same,TGI,[27],> 100 µM
same,TGI,[28],> 100 µM
same,TGI,[29],> 100 µM
same,TGI,[30],> 100 µM
same,TGI,[31],> 100 µM
same,TGI,[32],> 100 µM
same,TGI,[33],> 100 µM
same,TGI,[34],> 100 µM
same,TGI,[35],> 100 µM
same,TGI,[36],> 100 µM
same,TGI,[37],> 100 µM
same,TGI,[38],> 100 µM
same,TGI,[39],> 100 µM
same,TGI,[40],> 100 µM
same,TGI,[41],91.9 µM
same,TGI,[42],> 100 µM
same,TGI,[43],> 100 µM
same,TGI,[44],> 100 µM
same,TGI,[45],> 100 µM
same,TGI,[46],> 100 µM
same,TGI,[47],> 100 µM
same,TGI,[48],> 100 µM
same,TGI,[49],> 100 µM
same,TGI,[50],> 100 µM
same,TGI,[51],> 100 µM
same,TGI,[52],> 100 µM
same,TGI,[53],> 100 µM
same,TGI,[54],> 100 µM
same,TGI,[55],> 100 µM
same,TGI,[56],> 100 µM
CCCOP(=O)(OCCC)OC(C(F)(F)F)C(F)(F)F,TGI,[2],> 100 µM
same,TGI,[4],> 100 µM
same,TGI,[5],> 100 µM
same,TGI,[7],> 100 µM
same,TGI,[9],> 100 µM
same,TGI,[10],> 100 µM
same,TGI,[11],> 100 µM
same,TGI,[12],> 100 µM
same,TGI,[13],> 100 µM
same,TGI,[14],> 100 µM
same,TGI,[57],> 100 µM
same,TGI,[16],> 100 µM
same,TGI,[17],> 100 µM
same,TGI,[19],> 100 µM
same,TGI,[20],> 100 µM
same,TGI,[58],> 100 µM
same,TGI,[21],> 100 µM
same,TGI,[22],> 100 µM
same,TGI,[23],> 100 µM
same,TGI,[59],> 100 µM
same,TGI,[24],> 100 µM
same,TGI,[25],> 100 µM
same,TGI,[26],> 100 µM
same,TGI,[27],> 100 µM
same,TGI,[28],> 100 µM
same,TGI,[29],> 100 µM
same,TGI,[30],> 100 µM
same,TGI,[32],> 100 µM
same,TGI,[34],> 100 µM
same,TGI,[37],> 100 µM
same,TGI,[38],> 100 µM
same,TGI,[41],> 100 µM
same,TGI,[42],> 100 µM
same,TGI,[43],> 100 µM
same,TGI,[45],> 100 µM
same,TGI,[46],> 100 µM
same,TGI,[47],> 100 µM
same,TGI,[48],> 100 µM
same,TGI,[49],> 100 µM
same,TGI,[51],> 100 µM
same,TGI,[52],> 100 µM
same,TGI,[53],> 100 µM
same,TGI,[54],> 100 µM
same,TGI,[55],> 100 µM
same,TGI,[56],> 100 µM
CO/N=C(\C([O-])=N\[n+]1cnn(CC(=O)OC(C)(C)C)c1)c1csc(NC(c2ccccc2)(c2ccccc2)c2ccccc2)n1,TGI,[1],> 10 µM
same,TGI,[2],> 10 µM
same,TGI,[3],> 10 µM
same,TGI,[4],> 10 µM
same,TGI,[5],> 10 µM
same,TGI,[6],> 10 µM
same,TGI,[7],> 10 µM
same,TGI,[8],> 10 µM
same,TGI,[9],> 10 µM
same,TGI,[10],> 10 µM
same,TGI,[11],> 10 µM
same,TGI,[12],> 10 µM
same,TGI,[13],> 10 µM
same,TGI,[14],> 10 µM
same,TGI,[57],> 10 µM
same,TGI,[15],> 10 µM
same,TGI,[16],> 10 µM
same,TGI,[17],> 10 µM
same,TGI,[18],> 10 µM
same,TGI,[19],> 10 µM
same,TGI,[20],> 10 µM
same,TGI,[58],> 10 µM
same,TGI,[21],> 10 µM
same,TGI,[22],> 10 µM
same,TGI,[23],> 10 µM
same,TGI,[25],> 10 µM
same,TGI,[26],> 10 µM
same,TGI,[27],> 10 µM
same,TGI,[28],> 10 µM
same,TGI,[29],> 10 µM
same,TGI,[30],> 10 µM
same,TGI,[31],> 10 µM
same,TGI,[32],> 10 µM
same,TGI,[33],> 10 µM
same,TGI,[34],> 10 µM
same,TGI,[35],> 10 µM
same,TGI,[36],> 10 µM
same,TGI,[37],> 10 µM
same,TGI,[38],> 10 µM
same,TGI,[39],> 10 µM
same,TGI,[40],> 10 µM
same,TGI,[41],> 10 µM
same,TGI,[42],> 10 µM
same,TGI,[43],> 10 µM
same,TGI,[44],> 10 µM
same,TGI,[45],> 10 µM
same,TGI,[46],> 10 µM
same,TGI,[47],> 10 µM
same,TGI,[48],> 10 µM
same,TGI,[49],> 10 µM
same,TGI,[50],> 10 µM
same,TGI,[51],> 10 µM
same,TGI,[52],> 10 µM
same,TGI,[53],> 10 µM
same,TGI,[54],> 10 µM
same,TGI,[56],> 10 µM
O=C(c1cccnc1)N1N=C(c2ccccc2)CC1(O)c1cc(F)c(Cl)cc1Cl (configuration not stated),TGI,[1],53.6 µM
same,TGI,[3],> 100 µM
same,TGI,[4],58.5 µM
same,TGI,[5],43.1 µM
same,TGI,[6],> 100 µM
same,TGI,[7],> 100 µM
same,TGI,[8],31 µM
same,TGI,[9],> 100 µM
same,TGI,[10],> 100 µM
same,TGI,[12],30.6 µM
same,TGI,[13],93.4 µM
same,TGI,[14],51.3 µM
same,TGI,[57],39.1 µM
same,TGI,[15],59.5 µM
same,TGI,[16],79.5 µM
same,TGI,[17],> 100 µM
same,TGI,[18],59.9 µM
same,TGI,[19],80.4 µM
same,TGI,[20],> 100 µM
same,TGI,[58],30 µM
same,TGI,[21],53.7 µM
same,TGI,[22],83 µM
same,TGI,[59],35.4 µM
same,TGI,[24],> 100 µM
same,TGI,[25],> 100 µM
same,TGI,[26],> 100 µM
same,TGI,[27],36.3 µM
same,TGI,[28],> 100 µM
same,TGI,[29],44.7 µM
same,TGI,[30],> 100 µM
same,TGI,[31],83.7 µM
same,TGI,[32],24.5 µM
same,TGI,[33],> 100 µM
same,TGI,[34],> 100 µM
same,TGI,[35],> 100 µM
same,TGI,[36],72.2 µM
same,TGI,[37],55.6 µM
same,TGI,[38],34.9 µM
same,TGI,[39],> 100 µM
same,TGI,[40],36.9 µM
same,TGI,[41],32.3 µM
same,TGI,[42],45.8 µM
same,TGI,[43],65.5 µM
same,TGI,[44],27.6 µM
same,TGI,[45],> 100 µM
same,TGI,[46],39.6 µM
same,TGI,[47],> 100 µM
same,TGI,[48],52.9 µM
same,TGI,[49],67 µM
same,TGI,[50],> 100 µM
same,TGI,[51],62.4 µM
same,TGI,[52],> 100 µM
same,TGI,[53],32.4 µM
same,TGI,[54],39.7 µM
same,TGI,[56],> 100 µM
